Active and inactive are the calls of the source.
Columns and labels:
[1] = target: Sphingosine 1-phosphate receptor 3 (Homo sapiens, UniProt Q99500); assay: Dose response cell-based high throughput screening assay for antagonists of the Sphingosine 1-Phosphate Receptor 3 (S1P3). [Related pubchem assays: 1429, 485 ]; format: functional
[2] = target: 5-hydroxytryptamine receptor 1E (Homo sapiens, UniProt P28566); assay: Counterscreen assay for S1P3 antagonists: Dose response cell-based high throughput screening assay to identify antagonists of the 5-Hydroxytryptamine Receptor Subtype 1E (5HT1E). [Related pubchem assays: 1429, 485 ]; format: functional
Sequence of 5-hydroxytryptamine receptor 1E (P28566 whole entry): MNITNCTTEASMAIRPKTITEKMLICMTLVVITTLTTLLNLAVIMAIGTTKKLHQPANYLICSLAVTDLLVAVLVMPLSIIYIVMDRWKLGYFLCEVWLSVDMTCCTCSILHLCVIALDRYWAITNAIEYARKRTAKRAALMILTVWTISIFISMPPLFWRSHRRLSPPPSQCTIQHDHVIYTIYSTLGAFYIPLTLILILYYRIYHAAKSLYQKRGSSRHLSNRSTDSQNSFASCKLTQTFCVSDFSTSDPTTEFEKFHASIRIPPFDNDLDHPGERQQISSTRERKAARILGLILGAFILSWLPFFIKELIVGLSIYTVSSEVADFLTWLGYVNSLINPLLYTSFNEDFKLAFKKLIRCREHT

H4 = assay: Luminescence Cell-Based Dose Response HTS to Identify Activators of 5'UTR Stem-Loop Driven Prion Protein mRNA Translation in H4 Neuroglioblastoma Cells. [Related pubchem assays: 1829 (Project Summary), 1814 (Primary HTS)]; format: functional; settings: Homo sapiens
[3] = Luminescence Cell-Based Dose Confirmation to Identify Activators of 5'UTR Stem-Loop Driven Alpha-Synuclein mRNA Translation in H4 Neuroglioblastoma Cells. [Related pubchem assays: 1829 (Project Summary), 1814 (Primary HTS)]; format: functional
[4] = Luminescence Cell-Based Dose Response to Identify Activators of 5'UTR Stem-Loop Driven Prion Protein mRNA Translation in H4-C Neuroglioblastoma Cells. [Related pubchem assays: 1829 (Project Summary), 1814 (Primary HTS)]; format: functional
[5] = Luminescence Cell-Based Dose Response to Identify Activators of Luciferase Translation or Activity in H4-C Neuroglioblastoma Cells. [Related pubchem assays: 1829 (Project Summary), 1814 (Primary HTS)]; format: functional
[6] = Luminescence Cell-Based Dose Response HTS to Identify Activators of Luciferase Translation or Activity in H4 […] Cells. [Related pubchem assays: 1829 (Project Summary), 1814 (Primary HTS)]; format: functional
[7] = Luminescence Cell-Based Dose Confirmation HTS to Identify Activators of 5'UTR Stem-Loop Driven Alpha-Synuclein mRNA Translation in H4 Neuroglioblastoma Cells. [Related pubchem assays: 1829 (Project Summary), 1814 (Primary HTS)]; format: functional
Mucolipin-3 = Mucolipin-3 (Homo sapiens, UniProt Q8TDD5); assay: Dose response cell-based high-throughput screening assay for agonists of the transient receptor potential channel ML3 (TRPML3). [Related pubchem assays: 1526, 1424, 1448 ]; format: functional
Sequence of Mucolipin-3 (Q8TDD5 whole entry): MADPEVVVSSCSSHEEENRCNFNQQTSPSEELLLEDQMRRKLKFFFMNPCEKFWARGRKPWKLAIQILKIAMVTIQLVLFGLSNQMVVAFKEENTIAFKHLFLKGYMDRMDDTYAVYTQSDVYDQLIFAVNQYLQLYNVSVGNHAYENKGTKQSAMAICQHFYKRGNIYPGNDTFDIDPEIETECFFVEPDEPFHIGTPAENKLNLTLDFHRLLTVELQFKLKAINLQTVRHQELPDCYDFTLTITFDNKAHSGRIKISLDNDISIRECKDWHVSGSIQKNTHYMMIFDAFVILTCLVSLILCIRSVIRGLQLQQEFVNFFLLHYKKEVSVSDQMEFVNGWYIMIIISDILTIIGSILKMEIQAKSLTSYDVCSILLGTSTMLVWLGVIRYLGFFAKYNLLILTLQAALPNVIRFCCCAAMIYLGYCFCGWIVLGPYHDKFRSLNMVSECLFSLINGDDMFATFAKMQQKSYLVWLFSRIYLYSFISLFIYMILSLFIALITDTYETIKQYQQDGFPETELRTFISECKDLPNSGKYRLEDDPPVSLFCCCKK

Ion channel NompC = Ion channel NompC (Danio rerio, UniProt Q7T1G6); assay: Fluorescence counterscreen assay for TRPML3 agonists: dose response cell-based high-throughput screening assay to identify agonists of the transient receptor potential channel N1 (TRPN1). [Related pubchem assays: 1526, 1424, 1448 ]; format: functional
Sequence of Ion channel NompC (Q7T1G6 whole entry): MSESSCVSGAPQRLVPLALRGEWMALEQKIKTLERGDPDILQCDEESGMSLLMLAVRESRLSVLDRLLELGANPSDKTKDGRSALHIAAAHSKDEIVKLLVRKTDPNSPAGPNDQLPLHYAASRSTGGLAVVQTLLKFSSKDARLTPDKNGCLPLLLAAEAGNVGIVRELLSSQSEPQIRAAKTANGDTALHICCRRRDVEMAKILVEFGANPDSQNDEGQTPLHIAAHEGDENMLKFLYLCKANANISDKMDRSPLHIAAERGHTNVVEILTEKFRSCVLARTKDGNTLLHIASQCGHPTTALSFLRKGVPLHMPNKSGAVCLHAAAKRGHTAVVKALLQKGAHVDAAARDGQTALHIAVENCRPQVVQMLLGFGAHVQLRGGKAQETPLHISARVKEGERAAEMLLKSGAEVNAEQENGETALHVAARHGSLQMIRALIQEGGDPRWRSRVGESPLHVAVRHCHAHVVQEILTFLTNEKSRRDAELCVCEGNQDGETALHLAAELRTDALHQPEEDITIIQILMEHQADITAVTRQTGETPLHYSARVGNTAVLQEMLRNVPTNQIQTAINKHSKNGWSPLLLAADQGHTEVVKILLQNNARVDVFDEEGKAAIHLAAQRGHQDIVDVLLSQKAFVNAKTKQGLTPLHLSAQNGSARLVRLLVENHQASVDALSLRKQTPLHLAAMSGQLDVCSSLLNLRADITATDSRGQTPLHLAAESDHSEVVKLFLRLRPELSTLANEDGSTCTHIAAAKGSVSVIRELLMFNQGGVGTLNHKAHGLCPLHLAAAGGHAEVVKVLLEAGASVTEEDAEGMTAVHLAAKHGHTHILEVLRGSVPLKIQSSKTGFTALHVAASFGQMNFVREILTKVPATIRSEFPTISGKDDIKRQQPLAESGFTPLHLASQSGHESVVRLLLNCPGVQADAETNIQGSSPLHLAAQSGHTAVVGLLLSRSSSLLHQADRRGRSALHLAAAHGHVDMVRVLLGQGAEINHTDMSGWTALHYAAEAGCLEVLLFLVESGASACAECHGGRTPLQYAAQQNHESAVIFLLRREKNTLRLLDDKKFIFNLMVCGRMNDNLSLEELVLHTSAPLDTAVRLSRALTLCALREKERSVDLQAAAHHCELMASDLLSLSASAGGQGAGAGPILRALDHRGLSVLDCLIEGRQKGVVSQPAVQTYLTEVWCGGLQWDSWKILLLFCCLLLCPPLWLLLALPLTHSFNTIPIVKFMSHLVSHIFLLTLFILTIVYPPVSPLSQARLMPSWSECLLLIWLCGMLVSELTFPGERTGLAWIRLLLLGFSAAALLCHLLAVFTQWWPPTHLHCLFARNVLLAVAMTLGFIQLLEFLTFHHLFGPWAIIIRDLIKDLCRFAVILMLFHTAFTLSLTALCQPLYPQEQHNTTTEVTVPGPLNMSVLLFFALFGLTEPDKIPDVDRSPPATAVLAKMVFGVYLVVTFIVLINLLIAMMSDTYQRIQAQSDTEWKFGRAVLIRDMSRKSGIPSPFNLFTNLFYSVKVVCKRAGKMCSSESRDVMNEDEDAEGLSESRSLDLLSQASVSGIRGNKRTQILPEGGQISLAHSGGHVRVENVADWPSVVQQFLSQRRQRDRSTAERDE

[8] = HEp-2 cell cytotoxicity, dose response, cytotoxicity control for RSV inhibitor project, HTS (AID 2410); format: functional; settings: human respiratory syncytial virus
[9] = inhibitors of Bluetongue virus cytopathic effect, confirmation, arbovirus, BSR cells (AID 1250); format: functional;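 further: protection from viral cytopathic effect measured as cell viability by ATP luminescence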
[10] = cytotoxicity in KRAS-transformed pancreatic duct cells, primary screen, cell-based, fluorescence, HTS (AID 431); format: functional; settings: Homo sapiens;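 further: cell line used: HPDE-C7K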
[11] = cytotoxicity in HPDE-C7 cells, cell-based, fluorescence, HTS (AID 430); format: functional; settings: Homo sapiens
[12] = HIV-1 Env-mediated cell fusion inhibitors, dose response, CCR5-tropic Env (AID 2279); format: functional
NS3 = NS3 (Hepatitis C virus, UniProt A3EZJ3); assay: PubChem AID 2173; design: species or system Hepacivirus hominis
Sequence of NS3 (A3EZJ3 whole entry): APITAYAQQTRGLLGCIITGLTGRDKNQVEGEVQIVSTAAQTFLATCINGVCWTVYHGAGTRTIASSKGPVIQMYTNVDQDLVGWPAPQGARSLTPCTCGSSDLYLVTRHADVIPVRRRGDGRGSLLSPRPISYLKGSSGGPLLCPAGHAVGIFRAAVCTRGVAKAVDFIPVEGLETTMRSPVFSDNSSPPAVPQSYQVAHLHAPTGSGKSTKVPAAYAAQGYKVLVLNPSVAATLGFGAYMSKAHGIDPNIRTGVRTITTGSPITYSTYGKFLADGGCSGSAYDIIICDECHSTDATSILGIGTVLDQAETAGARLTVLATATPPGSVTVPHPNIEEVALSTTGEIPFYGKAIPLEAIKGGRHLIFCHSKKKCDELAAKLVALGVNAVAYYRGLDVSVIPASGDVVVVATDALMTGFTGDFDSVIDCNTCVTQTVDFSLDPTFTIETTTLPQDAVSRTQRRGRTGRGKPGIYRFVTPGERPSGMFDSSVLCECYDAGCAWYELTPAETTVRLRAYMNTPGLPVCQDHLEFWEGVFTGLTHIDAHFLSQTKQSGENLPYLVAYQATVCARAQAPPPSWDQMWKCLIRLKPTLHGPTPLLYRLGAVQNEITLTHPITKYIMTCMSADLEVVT

Sequence of Sphingosine 1-phosphate receptor 3 (Q99500 whole entry): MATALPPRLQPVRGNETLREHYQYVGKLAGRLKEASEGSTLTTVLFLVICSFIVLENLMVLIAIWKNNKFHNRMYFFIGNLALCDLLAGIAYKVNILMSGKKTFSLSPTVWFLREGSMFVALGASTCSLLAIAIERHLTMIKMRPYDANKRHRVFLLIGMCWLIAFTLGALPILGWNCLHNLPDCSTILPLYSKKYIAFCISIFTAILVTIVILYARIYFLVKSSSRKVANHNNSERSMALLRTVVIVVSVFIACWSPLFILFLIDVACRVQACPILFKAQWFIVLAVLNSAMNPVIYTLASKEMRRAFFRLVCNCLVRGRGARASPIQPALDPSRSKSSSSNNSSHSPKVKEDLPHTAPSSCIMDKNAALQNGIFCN

## O=C(Nc1ccc(F)cc1F)c1c(C(F)(F)F)ccnc1Oc1ccc(Cl)cc1
[1]
  IC50: 4.29 µM (active)
[2]
  IC50: > 50 µM (not active)

## O=C1c2ccccc2C(=O)c2c1ccc1c(O)n(-c3ccccc3)nc21
H4
  EC50: 59.2 µM (inconclusive)
[3]
  EC50: 0.36 µM (active)
[4]
  EC50: 0.563 µM (active)
[5]
  EC50: 0.478 µM (active)
[6]
  EC50: < 0.1 µM (active)
[7]
  EC50: < 0.1 µM (active)

## COc1ccc(OC)c(N(CC(=O)N2CCCCC2)S(=O)(=O)c2ccc(OC)c(OC)c2)c1
Mucolipin-3
  EC50: 1.67 µM (active)
Ion channel NompC
  EC50: 25.6 µM (not active)

## COC(=O)c1c(N(S(C)(=O)=O)S(C)(=O)=O)sc2c1CCN(c1ncc(C(F)(F)F)cc1Cl)C2
[8]
  CC50: 16.9 µM (active)
[9]
  IC50: 29.2 µM (active)

## CCOC(=O)c1ccccc1NC(=O)c1c(F)c(F)c(F)c(F)c1F
[10]
  EC50: 13.6 µM (active)
[11]
  EC50: 15.7 µM (active)

## O=C(Nc1ccc(-c2nc3ccccc3[nH]2)cc1)c1ccccc1NS(=O)(=O)c1ccc(F)cc1
[12]
  IC50: > 50 µM (active)

## O=C(Nc1nc(-c2ccco2)c(-c2ccco2)s1)C1CCC1
NS3
  IC50: 30.4 µM (not active)

## O=C(N/N=C/c1ccc(-c2ccc([N+](=O)[O-])cc2)o1)[C@H]1C[C@@H]1c1ccccc1
[1]
  IC50: 3.03 µM (active)
[2]
  IC50: 1.96 µM (active)
